Article PMC9705864, “SCO6992, a Protein with β-Glucuronidase Activity, Complements a Mutation at the absR Locus and Promotes Antibiotic Biosynthesis in Streptomyces coelicolor” (Journal of Microbiology and Biotechnology, 2021)

Columns and labels:
[1] = target: T1, MBP-SCO6992 (rSCO6992; ORF-1; absR1) (Streptomyces coelicolor, UniProt Q7AKD9); experiment: p-nitrophenol release, absorbance at […] nm; type: biochemical; conditions: 1.67 mM substrate, 83 mM acetate pH 4.5, 37°C, 1 h; without added Zn2+
T1 construct: N-terminal MBP fusion (pMAL-c2x) kept, about 82 kDa; E. coli JM109
T1 sequence (Q7AKD9 1-359): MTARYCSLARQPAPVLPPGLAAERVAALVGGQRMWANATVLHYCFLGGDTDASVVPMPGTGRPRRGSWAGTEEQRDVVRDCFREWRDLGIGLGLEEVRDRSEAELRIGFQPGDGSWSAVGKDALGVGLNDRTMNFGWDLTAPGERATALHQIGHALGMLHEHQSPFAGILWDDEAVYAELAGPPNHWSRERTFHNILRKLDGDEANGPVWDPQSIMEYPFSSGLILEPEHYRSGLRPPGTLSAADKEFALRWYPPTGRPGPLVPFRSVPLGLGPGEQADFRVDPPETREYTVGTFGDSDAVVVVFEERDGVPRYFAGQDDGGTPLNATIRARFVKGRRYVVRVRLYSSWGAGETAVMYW

[2] = target: T1, MBP-SCO6992 (rSCO6992; ORF-1; absR1); experiment: native PAGE zymogram with Fast Garnet; type: biochemical; conditions: 0.2 M sodium acetate pH 5.2

O=C(O)[C@H]1O[C@@H](Oc2ccc([N+](=O)[O-])cc2)[C@H](O)[C@@H](O)[C@@H]1O [p-nitrophenyl-β-D-glucuronide]
p-nitrophenol release, absorbance at 415 nm [1]: when measuring β-glucuronidase activity using p-nitrophenyl-β-D-glucuronide as substrate, a strong activity was detected

COc1ccccc1NC(=O)c1cc2cc(Br)ccc2cc1O[C@@H]1O[C@H](C(=O)O)[C@@H](O)[C@H](O)[C@H]1O [naphthol AS-BI-β-D-glucuronide]
native PAGE zymogram with Fast Garnet [2]: purified MBP-SCO6992 protein had β-glucuronidase activity on an artificial substrate such as AS-BI-β-D-glucuronide
